Laboratory results reported in patent US11439615B2, “Lipoxin and lipoxin analogue mediated neuroprotection and treatments” (University Health Network, priority 2017, dated 2022).

Legend:
primary cortical neurons = assay: Primary cortical neurons under paraquat oxidative stress, neuron number; type: cell-based; conditions: n=5
Source text: Quantification of neuron number following oxidative stress from the redox cycling compound paraquat in primary cortical neurons.

HT22 cells [1] = assay: Glutamate challenge of HT22 neuronal cells, viability; type: cell-based; conditions: for protective activity of related molecules: up to 1 μM, glutamate challenged HT22 cells
Method: An in vitro assay to recapitulate key aspects of the acute KA model was established. In this case, unconcentrated ACM was applied to the glutamate sensitive neuronal cell line HT22 (66, 67). Glutamate challenge of 5 mM was titrated to induce 60-80% cell death (ie: 20-40% survival). […] The media was concentrated for proteomic analyses.
LXA4 and LXB4 promote direct neuroprotective signaling. To the inventor's knowledge, a role for lipoxins as direct neuroprotective or neurotrophic factors has not been reported. Although their established anti-inflammatory actions extend to the CNS (29-32). However, it was hypothesized they may have indirect protective effects. In order to test whether the protective activity was direct or indirect, LXA4 or LXB4 was applied to neuronal cells in an established in vitro assay.
There is no established receptor for LXB4. However, LXB4 shares structural homology with LXA4 and the DHA-derived resolving D2 (RvD2), which mediate their actions via FPR2 or GPR18 (74), respectively. Therefore, it was assessed whether specific receptor antagonists for FPR2 or GPR18 could block LXB4 mediated protection.
As shown in FIG. 14 lipoxin neuroprotection is dose responsive. Dose responses were generated for LXA4 (open circles) and LXB4 (closed circles) in HT22 cells exposed to glutamate stress, followed by nonlinear regression analyses.

HT22 cells [2] = assay: Mitosox mitochondrial oxidative stress in glutamate challenged HT22 cells; type: cell-based; conditions: 1 μM, HT22 cells challenged with glutamate, vs vehicle
Method: HT22 cells challenged with glutamate were then assayed for mitochondrial oxidative stress using the Mitosox reagent, in combination with 1 μM LXA4, LXB4, and the LXA4 receptor ALX/FPR2 agonists Quinc-1 and Mmk-1.

[3] = tested on: retinal ganglion cell neurons (RGCs); assay: Mouse acute retinal insult model (intravitreal kainic acid), RGC survival / GCL apoptosis; type: in vivo
Method: Male C57BLL/6 mice, 4-6 weeks of age, were purchased from Taconic or Jackson labs. All experimental protocols were approved by the UHN and UC Berkeley ACUC in accordance with applicable regulations. Mice were anesthetized by intraperitoneal injection of ketamine/xylazine. Intravitreal injections with 10 mM kainic acid (KA) were performed as previously described (45). Briefly, a 30-gauge needle was inserted tangentially into the vitreous and replaced with a Hamilton syringe to inject a volume of 2 μL, followed by application of ophthalmic antibiotic ointment (BNP, Vetoquinol). In some experiments, 10× concentrated ACM or test compounds were injected intravitreally one hour prior to the KA injection in concentrations as follows: LXA4 and LXB4 at 10 μM, Zileuton at 2 μg/ul, and WRW4 at 15 μM, all dissolved in PBS. Mice were euthanized by CO2 asphyxiation 18 hours post KA treatment and the eyes fixed in 4% paraformaldehyde. In all experiments n refers to the number of animals tested.
To quantify the extent of apoptosis, a well-established method was used to count the number of TUNEL-positive nuclei in the ganglion cell layer (GCL) and expressed it as a fraction of the total GCL nuclei (50-54). TUNEL labeling was performed according to the manufacturer's instructions (DeadEnd; Promega). Briefly, cryostat sections were fixed with 4% PFA for 5 minutes and washed in PBS. Equilibration buffer was added, and rTdT reaction mix was applied to each slide and incubated at 37° C. for 60 min. Following the rTdT reaction, slides were washed in 2×SSC and PBS and finally mounted with glycerol-based medium. For RGC survival, RBPMS-positive cells in the GCL were counted and expressed as a fraction of GCL nuclei. For each eye, at least five central retinal sections were analyzed at the level of the optic nerve stretching to each ora serrata, and the results averaged, as previously described (42).
In order to test the influence of the transplanted cells on inner retinal pathology, RA's were transplanted as above. After 16 days retinas were challenged with an acute metabolic injury by injection of kainic acid (KA). […]
Retinal astrocyte neuroprotection is mediated through secreted factors that include a small molecule component enriched in LXA4 and LXB4. […] This time, survival of RGCs was specifically assessed by probing for the selective marker RBPMS, along with complementary TUNEL staining, and quantified as previously. As expected, extensive RGC loss was detected in KA challenged eyes injected with cell-free control media incubated under the same conditions as ACM (FIG. 2A). […]

| Compound | neuron number following oxidative stress from paraquat (primary cortical neurons) | protective activity of related molecules (HT22 cells [1]) | further results |
| --- | --- | --- | --- |
| CCCCC[C@H](O)/C=C/C=C\C/C=C\C/C=C\CCCC(=O)O [15-HETE, reference compound] | no protection | no protective activity | – |
| C=C(C)[C@@H]1CCC(C)=C[C@H]1c1c(OC)cc(C)cc1OC [O-1918, reference compound] | – | – | block of LXB4 protective activity by receptor antagonist (HT22 cells [1]; LXB4 at 500 nM, increasing μM concentrations of antagonist): did not block LXB4 protective activity |
| CCCCOc1ccc(C(=O)NN2C(=O)c3ccccc3NC2c2ccc(OC)cc2)cc1 (centres unmarked) [Quinc-1, reference compound] | – | – | mitochondrial oxidative stress (Mitosox) (HT22 cells [2]): reduce mitochondrial oxidative stress |
| CC/C=C\C[C@H](O)[C@H](O)/C=C/C=C/C=C\C=C\[C@@H](O)C/C=C\CCC(=O)O [RvD2, reference compound] | no protection | no protective activity | – |
| CC(c1cc2ccccc2s1)N(O)C(N)=O (centres unmarked) [Zileuton, reference compound] | – | – | exacerbation of RGC loss in response to KA challenge compared to vehicle ([3]; intravitreal inhibitor prior to KA, Zileuton 10 μM or 2 μg/ul, WRW4 15 μM): 60%; effect on RGC numbers, drug alone ([3]; uninjured (naive) eyes, intravitreal, no KA, RBPMS counts): no effect |
